Here are results for two compounds from article PMC9786284, “Synthesis and Antiproliferative Effect of Halogenated Coumarin Derivatives” (Molecules, 2022).

The structures appear in SMILES notation. Some results are limits rather than exact numbers.

What all share (type): cell-based
The test system of assay [1] is TPC-1 cells. Nature of the assay: Annexin V-FITC/PI apoptosis assay by flow cytometry. The note with it: for total apoptotic cells: 20 μM, 24 h, untreated cells 10%; for viability at 20 µM: Homo sapiens, TPC1, 24 h, untreated cells 87%, read-out: viable cells. On the procedure: (§1) To determine whether the two studied coumarins 2k and 2h, induce cell death through apoptosis or necrosis, we performed double staining with fluorescent Annexin V-FITC/propidium iodide (PI) apoptosis detection kit in TPC-1 and Nthy-ori-3-1 as control cells. This assay is based on the ability of Annexin to recognize phosphatidylserine (PS), a membrane phospholipid exposed on the cell surface of apoptotic cells, while PI is able to bind the DNA of necrotic cells. Thanks to this combination, […] cell populations are obtained: cells negative for Annexin V-FITC and PI indicate live cells, Annexin V-FITC-positive/PI-negative and Annexin V-FITC-positive/PI-positive indicate early and late apoptotic cells, while cells negative for Annexin V-FITC and PI-positive are necrotic.
(§2) To investigate cell death induced by coumarins treatment, a flow cytometric analysis using the cell apoptosis kit Annexin V/propidium iodide (PI) double staining uptake (Life Technologies, Monza, Italy) was employed. Control and PTC-derived cells, at the density of 5 × 10^4 cells/mL, were seeded in 6-well plates (Corning) with complete DMEM/F12. First, the cells were treated with 20 µM of coumarins for 24 h. Cells were washed once with PBS 1X and stained according to the kit’s protocol. Stained cells were then analyzed by flow cytometry, measuring the fluorescence emission at 530 and 620 nm using a 488 nm excitation laser (MoFloAstrios EQ, Beckman Coulter). Cell apoptosis was analyzed using Software Summit Version 6.3.1.1, Beckman Coulter.
For orientation: Flow cytometry measures light scatter and fluorescence of single cells or particles in a stream.

Assay [2] deals with Nthy-ori-3-1 normal thyroid cells. Described as above. The note with it: 20 μM, 24 h. On the procedure:
as §1, §2

Assay [3] relates to SK-MES-1 lung cancer cell line. Nature of the assay: MTT cell viability assay. The note with it: Homo sapiens; SK-MES-1; MTT, 24 h; concentration required to inhibit cell proliferation by 50%; mean ± SD; read-out: CC50. On the procedure:
The cytotoxic effect of coumarins 2a–k was tested on several cancer and normal cell lines: lung cancer cell line (SK-MES-1), thyroid cancer cell lines (K-1; B-CPAP ant TPC-1), lung fibroblast (MRC-5) and thyroid normal cell line (Nthy-ori-3-1) by MTT (3-[4,5-dimethylthiazol-2-yl]-2,5 diphenyltetrazolium bromide) assay.
The papillary thyroid carcinoma (PTC)-derived cell lines (TPC-1 and B-CPAP) were kindly provided by Dr. Fusco (Medical School, University Federico II of Naples, Naples, Italy). K-1 PTC-derived cell line and non-tumorigenic thyroid Nthy-ori-3-1 cell line were purchased from Health Protection Agency Culture Collections. The PTC-derived cell lines were maintained in DMEM/F12 (Gibco-BRL. Life Technologies, Milan, Italy)] supplemented with 10% fetal bovine serum (Gibco-BRL) at 37 °C in humidified 5% CO2. SK-MES-1 and MRC-5 were purchased from American Type Culture Collection (ATCC) and were maintained in Mem-E medium, supplemented with 10% fetal bovine serum, 100 units/mL penicillin G, and 100 μg/mL streptomycin (Gibco-BRL) at 37 °C in humidified 5% CO2.
The effect of test compounds on the viability of cells was detected by MTT assay. The thyroid cells (7.5 × 10^3 cells/mL), SK-MES-1, and MRC-5 (8 × 10^4 cells/mL) were seeded into a 96-well plate and allowed to adhere for 16 h to culture plates before the addition of the compounds.
Then, compounds were added at different concentrations (0.8–100 μM), and cells were further incubated for 24 h. Cells with no treatment were used as a negative control. After incubation, cells were treated with MTT solution for 3 h at 37 °C. Then, the MTT solution was removed, and 150 µL of DMSO was added to the wells. The absorbances were measured at 570 nm using a TECAN microplate reader (Infinite 200, Tecan, Salzburg, Austria). Viability data were reported as % of control (untreated cells) for each cell line.

Assay [4] concerns TPC-1 cells. Nature of the assay: Intracellular reduced and oxidized glutathione (GSH/GSSG) by HPLC-ECD. The note with it: 20 µM, 24 h, untreated cells 100%. On the procedure: (§3) Redox perturbation was further investigated by measuring intracellular antioxidant species. In Nthy-ori3-1 cells, coumarin 2k at 20 µM improved the GSH concentration measured as GSH/GSSG ratio (p < 0.001), leading to values close to 200% with respect to the untreated cells (100%), while coumarin 2h increased the level of GSH but with less evidence (about 40% more than the untreated control cells, p < 0.01) (Figure 4). […] The Keap1/Nrf2/ARE system is a mechanism that plays a key role in the pathogenesis and progression of several diseases. It is a central defensive mechanism against oxidative stress.
(§4) Reduced glutathione (GSH) and oxidized glutathione (GSSG) levels were determined with high-performance liquid chromatography coupled with an electrochemical detector (HPLC-ECD), as described in previous studies. In detail, Nthy-ori3-1 and TPC-1 cells were seeded in 6-well plates at the density of 1 × 10^5 cells/2 mL and incubated for 24 h. Cells were then treated with 2k and 2h (20 µM) for 24 h. After the incubation, cells were scraped and extracted with 150 µL of 10% meta-phosphoric acid and 150 µL of 0.05% trifluoroacetic acid (TFA) (Merck, Milan, Italy) solution. After centrifugation, 10 µL of supernatant was collected for protein determination, and the remaining part was injected into the HPLC system. GSH and GSSG amounts were measured using an HPLC (Agilent 1260 infinity, Agilent Technologies, Palo Alto, CA, USA) equipped with an electrochemical detector (DECADE II Antec, Leyden, The Netherlands) and an Agilent interface 35900E. A calibration curve was created using standards of GSH and GSSG (Merck, Milan, Italy), injected with different concentrations. Data were collected and expressed as a percentage of the control cells (100%) of the ratio between GSH and GSSG normalized using µg of total proteins.

In another assay the test system is Nthy-ori3-1 cells. The description is as above. The note with it: 20 µM, 24 h. On the procedure: as §3, §4

On to `N#Cc1cc2cc(Br)cc(Br)c2oc1=O` [2h, 6,8-dibromo-2-oxo-2H-chromene-3-carbonitrile], for which, in the assay with TPC-1 cells [1], the total apoptotic cells is 18% and the viability at 20 µM worked out at 77.7%. Moreover, the induction of apoptosis result in assay [2] is reported as “No significant induction of apoptosis”. In addition, in assay [3], the CC50 (commonly the concentration that lowers cell viability or growth by half) is greater than 100 µM. Also, the “GSH/GSSG ratio, percentage of untreated cells” value (shortened to “GSH/GSSG ratio, percentage”) in the assay on TPC-1 cells [4] is “up to 500%”. Besides, the “increase in level of GSH over untreated control cells” value in the assay with Nthy-ori3-1 cells (more than the untreated control) is “about 40%”.
As to `N#Cc1cc2cc(I)cc(I)c2oc1=O` [2k, 6,8-diiodo-2-oxo-2H-chromene-3-carbonitrile], in the assay on TPC-1 cells [1], the total apoptotic cells was 34% and the viability at 20 µM is 62%. Also, the induction of apoptosis result in assay [2] is “No significant induction of apoptosis”. Also, the CC50 in assay [3] was greater than 100 µM. Moreover, the “GSH/GSSG ratio, percentage” value with TPC-1 cells [4] was “about 200%”. The “GSH/GSSG ratio, percentage” value in the assay with Nthy-ori3-1 cells (untreated cells 100%) is “about 200%”.
